Series [1] deals with E. coli (mc4100 strain). The experiment in a line: time-resolved second-harmonic scattering (SHS) of dye uptake by living bacteria, Gram-negative. It is filed as cell-based. How it is done:
(§1) Discrete colonies of E. coli (mc4100 strain) and L. rhamnosus ([…] strain) were grown on Luria Broth agar (Sigma-Aldrich) plates. Experimental samples, prepared from single colonies, were cultured (37° C., 150 rpm shaking) in Terrific Broth (TB, Sigma-Aldrich) to late-log/early stationary phase. Samples were lightly pelletized by centrifugation (ca. 1500 g for 2 min) and washed in 1×PBS to remove waste and residual TB. […] Final sample concentrations were maintained at 10 μM (MG) and 50 μM (CV). The 800 nm output from a Ti:sapphire laser (Coherent, […], oscillator only, 50 fs pulse duration, 4 nJ pulse energy, 76 MHz repetition rate, 0.4 W average power) was used as a fundamental light source. As depicted in FIG. 2A, SHS was measured while the sample circulated through a liquid flow system. To ensure collection of the SH signal solely from the sample, a long-pass filter (Schott, RG695) was placed in front of the focusing lens immediately before the sample jet. […] The signal was then detected by a photomultiplier (Hamamatsu, […]), amplified (Stanford Research Systems, SR440), and processed through a correlated photon counting system (Stanford Research Systems, SRS SR400). As a means of separating the surface specific SH response from the hyper-Rayleigh scattering (HRS) of the bulk dye solution, SHS was first measured from the dye solution in the absence of cells. […] To ensure rapid mixing of the suspension, in addition to circulating through the system, the contents of the sample reservoir were continuously stirred.

The subject of series [2] is E. coli (mc4100 strain). The conditions noted are these: prior SHS studies, living E. coli; cited from earlier work.
The test system of series [3] is L. rhamnosus (R0011 strain). Put plainly: time-resolved second-harmonic scattering (SHS) of dye uptake by living bacteria, Gram-positive. Format: cell-based, Lactobacillus (L.) rhamnosus. The method, then:
as §1

For series [4] the following is noted: pH=7.2; cited from earlier work.
[5] abbreviates: E. coli added ca. 10 s, 10 μM MG, 50 μM CV, FIG. 2B.

Take `CN(C)c1ccc(C(=C2C=CC(=[N+](C)C)C=C2)c2ccccc2)cc1` [MG, malachite green]: the “time of onset of second rise of SHS signal (dye has diffused across PM and adsorbs onto outer surface of CM)” value in the series with E. coli (mc4100 strain) [1] (setting [5]) is “around 25 s”. Besides, the “time of second decay of SHS signal (dye crosses the CM)” value in the series on E. coli (mc4100 strain) [1] (E. coli added ca. 10 s, 10 μM MG, FIG. 2B) is about 120 s. Besides, the “ability to cross bacterial membranes (OM, CM)” value in the series with E. coli (mc4100 strain) [2] was “cross both the OM and CM”. In series [3] (10 μM MG, FIG. 6), the “MG uptake kinetics compared with E. coli” value was “nearly identical transport curves”. In series [4], the “fraction of molecules in solution that are neutral” value is “more than 50%”.
Consider `CN(C)c1ccc(C(=C2C=CC(=[N+](C)C)C=C2)c2ccc(N(C)C)cc2)cc1` [CV, crystal violet], for which the “time of onset of second rise of SHS signal (dye has diffused across PM and adsorbs onto outer surface of CM)” value in the series with E. coli (mc4100 strain) [1] (setting [5]) is given as “roughly 70 s”. In addition, the “time until which second rise of SHS signal continues to grow, then stable plateau” value with E. coli (mc4100 strain) [1] (E. coli added ca. 10 s, 50 μM CV, FIG. 2B) is given as “about 400 s”. For the same molecule, the “late time SHS signal relative to HRS baseline” value in the series with E. coli (mc4100 strain) [1] (Gram-negative cells, 50 μM CV, FIG. 4) is “positive response”; in series [3] (Gram-positive cells, 50 μM CV, FIG. 4) it was “negative response”. In the series on E. coli (mc4100 strain) [2], the “ability to cross bacterial membranes (OM, CM)” value was “unable to cross the bacterial CM”. In series [3] (50 μM CV), the “fraction of CV from the bulk extracellular solution drawn into the Gram-positive cells” value was “ca. 30%”. In addition, in series [3] (50 μM CV, after fast transport event, observation time 2000+ s, FIG. 4), the “reduction of the HRS background” value is recorded as 30%. For the same molecule, the “removal of CV from the bulk solution” value in series [3] (50 μM CV, inferred from reduction of HRS background) was “ca. 15 μM”. Further, the “second rise of SHS signal (arrival at CM)” value in series [3] (within the 2000+ s observation time, also at higher concentrations) was “no second rise of SHS signal is ever observed”. For the same molecule, the “fraction of molecules that are cationic” value in series [4] was 100%.
